Holding throughout (test): inhibition of tumour cell growth, NCI panel, 48 h
For experiment [1], the system named is KM12 colon.
Experiment [2] deals with UACC-62 melanoma.
Experiment [3] deals with HCT-116 colon.
For experiment [4], the system named is SK-MEL-5 melanoma.
Experiment [5] has as its system U251 CNS.
Experiment [6] concerns SN12C renal.
Experiment [7] has as its system 786-0 renal.
Experiment [8] relates to SNB-75 CNS.
The subject of experiment [9] is SNB-19 CNS.
The test system of experiment [10] is HCC-2998 colon.

“And” between values parts separate entries of the source, which are not always exact repeats. Equal entries are not always repeated.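 Grown in 96-well plates, cells were treated for 48 hours with each compound at five concentrations. Insufficient inhibition: endpoint recorded as highest concentration tested. The concentration for 50% growth inhibition is given as GI50. TGI denotes the concentration required for complete inhibition of growth.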 Where a SMILES comes first, the peptide text is derived from it. [ ]: non-standard residue; d: D form. 2Nal = N[CH](Cc1ccc2ccccc2c1)C(=O)O

As for `COc1cc2c(cc1OC)-c1c(cc(OC)c(OC)c1OC)C2=O`, the TGI in experiment [1] was over 100 µM; in experiment [2], over 100 µM; in experiment [3], over 100 µM; in [4], over 100000 nM; in experiment [5], over 100 µM; in experiment [6], over 100 µM. For the same compound, the TGI in experiment [7] was over 100 µM; in experiment [8], 95.5 µM; in experiment [9], over 100 µM; in experiment [10] it was over 100 µM.
Consider `COC(=O)c1c2c(c(C)[n+]([O-])c1C)C(=O)C(NCc1ccc(F)c(Cl)c1)=CC2=O`, for which the GI50 is 1960 nM in experiment [1]; 1380 nM in [2]; 2340 nM in experiment [3]; 426 nM in experiment [4]; 2530 nM in experiment [5]; 1520 nM in experiment [6]. The GI50 in [7] is 3100 nM; in [8] it was 2740 nM; in [9] it was 2810 nM; in experiment [10], 2280 nM. For the same compound, the TGI in [1] amounted to 9.63 µM; in experiment [2], 3.12 µM; in experiment [3], 10.2 µM; in experiment [4], 1570 nM; in experiment [5], 13.8 µM; in experiment [6] it was 3.66 µM. In addition, the TGI in experiment [7] was 22.7 µM; in [8], 9.32 µM; in [9], 9.33 µM; in experiment [10], 6.66 µM.
Regarding `N#CC1=C(N)Oc2c(sc3c(F)cccc23)C1c1ccc([N+](=O)[O-])cc1` (configuration not stated), the GI50 in [1] is 141 nM; in experiment [2], 86.3 nM; in experiment [3], 169 nM; in experiment [4], 165 nM; in [5] it was 153 nM; in experiment [6], 276 nM. The GI50 in experiment [7] is 337 nM; in experiment [8], 115 nM; in experiment [9], 241 nM; in experiment [10], 307 nM. In addition, the TGI in experiment [1] is 1.27 µM; in experiment [2], 1.33 µM; in experiment [3] it was 1.33 µM; in [4] it was 1240 nM; in [5] it was 1.21 µM; in experiment [6], 1.31 µM. In addition, the TGI is 1.46 µM in experiment [7], 0.445 µM in [8], 1.51 µM in experiment [9] and 1.46 µM in [10].
`O=C1C(Nc2ccccn2)=C(I)C(=O)c2ncccc21`: the GI50 in [1] is 1650 nM; in [2], 1280 nM; in experiment [3], 372 nM; in [4], 1110 nM; in [5], 591 nM; in experiment [6], 889 nM. Further, the GI50 in experiment [7] is 1900 nM; in experiment [8], 1010 nM; in experiment [9], 1040 nM; in experiment [10], 1530 nM. In addition, the TGI in experiment [1] turned out to be 3.42 µM; in experiment [2], 2.67 µM; in experiment [3], 1.61 µM; in experiment [4] it was 2310 nM; in experiment [5], 2.07 µM; in experiment [6], 2.56 µM. The TGI in experiment [7] turned out to be 4.68 µM; in experiment [8], 2.23 µM; in [9], 2.24 µM; in experiment [10], 2.98 µM.
For `CSc1s[s+]c(SC)c1[O-]`, the TGI was over 100 µM in [1]; 28.2 µM in experiment [2]; 36.8 µM in experiment [3]; over 100000 nM in experiment [4]; 86.5 µM in [5]; 52.5 µM in experiment [6]. Also, the TGI in experiment [7] is 30.3 µM; in experiment [8], over 100 µM; in [9], over 100 µM; in [10] it was over 100 µM.
`Cc1oc2c(c1C(=O)c1ccccc1)C(=O)c1ccccc1C2=O`: the TGI in [1] came to 18.7 µM; in experiment [2], 7.72 µM; in experiment [3] it was 8.76 µM; in experiment [4], 4150 nM; in [5], 21 µM; in experiment [6], 25.2 µM. The TGI worked out at 10.6 µM in experiment [7], 13.6 µM in experiment [8], 23.7 µM in experiment [9] and 29.1 µM in experiment [10].
Turning to `O=[N+]([O-])c1ccc2nc(N/N=C/c3ccc(O)cc3)sc2c1`, the GI50 in [1] is 2720 nM; in experiment [2], 4460 nM; in [3], 2890 nM; in experiment [4] it was 2880 nM; in [5], 4560 nM; in experiment [6], 4400 nM. Besides, the GI50 is 6430 nM in experiment [7], 5160 nM in experiment [8], 6240 nM in experiment [9] and 7080 nM in experiment [10]. In addition, the TGI was 17.2 µM in experiment [1]; 37 µM in [2]; over 100 µM in experiment [3]; 11100 nM in [4]; 67.5 µM in [5]; over 100 µM in experiment [6]. The TGI in [7] was 60.5 µM; in experiment [8], 56.1 µM; in experiment [9], over 100 µM; in [10], over 100 µM.
With `CC(NC(=O)C(N)Cc1ccccc1)C(=O)NC(Cc1ccc(O)cc1)C(=O)NC(Cc1c[nH]c2ccccc12)C(=O)NC(CCCCN)C(=O)NC(C(=O)NC(C)C(=O)NC(Cc1ccc2ccccc2c1)C(N)=O)C(C)C` (configuration not stated) (H-FAYWKVA[2Nal]-NH2; configuration not given here), the GI50 is 21900 nM in experiment [1]; 26800 nM in [2]; 33900 nM in experiment [3]; 25100 nM in experiment [5]; over 100000 nM in experiment [6]; 24800 nM in experiment [7]. Besides, the GI50 in experiment [10] was 29700 nM. In addition, the TGI in experiment [1] is > 12.5 µM and 53.3 µM; in experiment [2] it was > 12.5 µM and 75.7 µM; in experiment [3], over 100 µM; in experiment [4] it was over 12500 nM; in [5], > 12.5 µM and 67 µM; in experiment [6], over 100 µM. The TGI in experiment [7] is > 12.5 µM and 65.1 µM; in experiment [8], 71.8 µM; in experiment [9] it was 71.1 µM; in [10] it was over 100 µM.
Turning to `C/C=C(/C)C(=O)OC1C=C(CO)C(=O)C(OC(=O)/C(C)=C\C)C1C(C)C` (configuration not stated), the GI50 in [1] was 1450 nM; in experiment [2], 644 nM; in [3], 490 nM; in [4], 1330 nM; in experiment [5], 708 nM; in experiment [6], 546 nM. Besides, the GI50 in experiment [7] is 1080 nM; in [8], 1400 nM; in [9], 1460 nM; in experiment [10] it was 1710 nM. The TGI in experiment [1] amounted to 3.02 µM; in experiment [2] it was 1.98 µM; in [3], 1.67 µM; in experiment [4], 2660 nM; in experiment [5], 2.03 µM; in experiment [6], 1.59 µM. Besides, the TGI in [7] worked out at 2.63 µM; in experiment [8] it was 2.73 µM; in experiment [9], 2.85 µM; in experiment [10] it was 3.27 µM.

The values above are taken from PubChem BioAssay (NCI).
